# From publication PMC11385693, “Synthesis of ferrocenyl benzimidazole derivatives as novel anti-Toxoplasma gondii agents” (New Journal of Chemistry, 2024)
# Values joined by “and” are separate entries in the source; they are usually repeats but may differ in a detail not shown here. Equal entries are not always repeated. Where two headings read alike, the source gives them in different places.
# Tests used:
# [1] = test system: T. gondii parasites; experiment: Determination of ROS formation by FACS (CellROX deep red); assay type: cell-based, Toxoplasma gondii; settings: 66 μM, 18 hours, compared with untreated parasites
# Method: Once it had been established that two of the synthesised ferrocenyl benzimidazole derivatives were biologically active, their potential mode of action was explored. Given the presence of the ferrocenyl moiety, and the cyclic voltammetry results, it was of interest to investigate whether the compounds induce ROS, which may provide an explanation for their anti-parasitic activity. Thus, cells heavily infected with parasites were incubated with target compounds for 18 hours, before isolating the parasites and staining them with CellRox deep red reagent. CellRox is an oxidation sensitive dye which is non-fluorescent in its reduced state but fluoresces bright red at 665 nm upon being oxidised by ROS. FACS was then used to quantify CellROX parasite florescence.[56] Parasites were incubated with ferrocene carboxylic acid (FcCOOH), and untreated parasites were used as controls.
# 6 cm dishes of host cells heavily infected with T. gondii were untreated or treated with 66 μM (second highest concentration used in growth inhibition assays) of test compounds for 18 hours. The dishes were then scratched and syringed, before filtering the solution into 10 mL falcon tubes to remove cell debris. The tubes were spun down for 10 minutes at 1500 rpm. The media was then removed from the tubes, and the pellet resuspended in 200 μL of PBS buffer. For each drug, 100 μL of the resuspended pellet was then placed into 2 FACS tubes, one which would then be stained with CellROX dye, and the other 100 μL of PBS added to act as an unstained control. A 1 : 125 dilution of CellROX stock solution was performed, and 100 μL of this solution added to the FACS tubes needing staining. Stained tubes were incubated at 37 °C for at least 15 min before analysis on a BD Celesta flow cytometer. Data was obtained using FACSDiva software with parasites being gated on forward scatter, side scatter and green fluorescence. FlowJo v10 software was used to plot the geometric mean of CellRox fluorescence from at least 5000 parasites on the Cy7 channel.
# [2] = Cyclic voltammetry; assay type: physicochemical
# Excerpt: Ferrocene is known to undergo reversible oxidation and reduction, cycling between its 3^+ ferrocenium and the 2^+ ferrocene (Fc) states.[49,50] This redox behaviour leads to the generation of reactive oxygen species (ROS) through Fenton like reactions, which can in turn lead to parasite death.[51–53] Cyclic voltammetry was used to determine if the synthesised ferrocenyl derivatives had the potential to have an impact on the redox status of the parasite cells. Two different scan rates (25 and 90 mV s^−1) were used to ensure the reliability of the results, compared to ferrocene alone.
# [3] = test system: RhΔKu80:mNeonGreen strain of T. gondii; experiment: microbe, parasite or virus in culture; assay type: cell-based, Toxoplasma gondii
# Method: Growth inhibition assays were carried out using the RhΔKu80:mNeonGreen strain of T. gondii, which expresses the mNeonGreen fluorescent protein.[56] Parasite growth inhibition was determined by measuring the fluorescence emission of parasite growth in increasing concentrations of compounds of interest.
# T. gondii ΔKu80:mNeon tachyzoites were grown in human foreskin fibroblasts (HFFs) with Dulbecco's modified Eagle's medium (DMEM) supplemented with 3% heat inactivated foetal bovine serum (D3) as the culturing medium. Cells and parasites were maintained at 37 °C and 5% carbon dioxide (CO2).
# EC50s were calculated as previously described.[56] Briefly, T. gondii ΔKu80:mNeon parasites were counted by haemocytometer and diluted to 25 000 parasites per mL in 40 mL of D3 media, to give an infection of 5000 parasites per well. The media from a black clear bottomed 96 well plate containing HFFs was then aspirated. 200 μL of uninfected D3 media was added to the top and bottom rows of wells (A and H) to serve as blanks. 200 μL of T. gondii containing D3 media was then added to the remaining wells. The parasites were allowed 2 hours to invade host cells, after which test compounds were added.
# The media from the infected 96 well plates was then aspirated and 100 μL of D3 media added to each well, excluding column 12. The first 4 wells of column 12 were filled with 300 μL of drug supplemented D3 media, while the next 4 wells were filled with 300 μL of D3 media supplemented with a different drug. The drug supplemented D3 media was then serially diluted 1 : 3 across the plate, stopping at column 2 and disposing of the media, leaving all wells with 100 μL of media. Finally, the plates were closed and incubated at 37 °C with 5% CO2 for 4 days. After 4 days the fluorescence of each well on the plates was read at 594 nm emission using a PHERAstar FS microplate reader. Graphpad Prism 9 software was used to plot dose–response and determine inhibition of parasite growth.
# [4] = test system: HEK293T cell line; settings: 25 μM, MTT 48 hours
# Method: Human prostatic epithelial cells (PNT1A) were cultured in Rosewell Park Memorial Institute (RPMI) media supplemented with 10% heat inactivated FBS. Both cell lines were incubated at 37 °C with 5% CO2. Both cell lines were obtained from ATCC.
# The cells were allowed to recover overnight before the addition of compounds.
# Stock solutions of the test compounds in DMSO were prepared and serially diluted in DMSO in a 96 well plate. […] 10 μL of the test compounds in media was then pipetted into the plates containing cells in triplicate. The cells were then incubated with the test compounds for 48 hours. After incubation, 10 μL of previously prepared MTT reagent was added to each well followed by incubation of the plates for 4 hours. 100 μL of solubilising agent was then pipetted into each well, and the plates incubated overnight. After overnight incubation the plates were read using a BioTek SYNERGY HTX multimode plate reader at 595 nm. Graphpad Prism 9 software was used to plot dose–response and determine cell viability.
# [5] = Turbidimetric solubility assay; settings: for solubility at 2 h: kinetic from dmso stock
# Method: A single phosphate buffered saline (PBS) tablet (Sigma Aldrich) was dissolved in 200 mL of distilled water (dH2O) (25 °C) to obtain a PBS solution with 0.01 M phosphate buffer, 0.14 M NaCl and 0.003 M KCl.
# Stock solutions of the compounds to be tested were prepared in DMSO at a concentration of 10 mM and filtered through syringe filters. Serial dilution of the stock solutions with DMSO was then carried out in a preparatory (prep) 96-well plate giving concentrations between 0.00 and 10.0 mM (0.00, 0.25, 0.50, 1.0, 2.0, 4.0, 8.0 and 10 mM). The solutions were then further diluted into 96-well assay plates containing DMSO, PBS or HEPES buffer by pipetting 4.00 μL of solution from the prep plate to the Assay plate containing 196 μL of DMSO or buffer, giving final concentrations between 0.00 and 200 μM (0.00, 5.00, 10.0, 20.0, 40.0, 80.0, 160 and 200 μM). The assay plates were incubated at 25.0 or 37.0 °C for two hours before their UV-vis absorbance was read at 620 nm with a SPECTROstar Nano microplate reader spectrophotometer. Blank readings were used to gain corrected readings by subtracting them from obtained absorbances for each compound concentration.
# [6] = Aqueous stability studies (UV-vis monitoring, ESI-MS follow-up); assay type: physicochemical; settings: for Change of UV-vis spectrum over time (aqueous stability): PBS pH 7.4, HEPES pH 7.0 and acetate buffer pH 4.6, 37 °C, 18 hours, 50 μM
# Method: The stability of complexes 14–17 in an aqueous environment was investigated. The stability experiments were performed in PBS (pH 7.4) and HEPES (pH 7.0) buffers, as well as in acidic acetate buffer (pH 4.6), by monitoring the UV-vis spectra of the compounds at 37 °C over an 18-hour period.
# To further investigate the stability of 14, the PBS, HEPES and acetate buffer solutions were evaporated to dryness, and then analysed using electrospray ionisation mass spectrometry in the positive ionisation mode.
# PBS and HEPES buffers were prepared as described above. An acetate buffer with a concentration of […] and a pH of 4.60 was prepared by dissolving 5.40 g (65.83 mmol) of sodium acetate in 50 mL of dH2O. The resulting solution was then titrated to a pH of 4.60 with glacial acetic acid and made up to 100 mL with dH2O.
# 1 mM stock solutions of the synthesised target compounds in MeOH were prepared. 1.90 mL of buffer (PBS, HEPES or acetate buffer) was pipetted into cuvettes followed by the addition 100 μL of test compound stock solutions, diluting them to a final concentration of 50 μM. The cuvettes were then stoppered, inverted to mix the solution, and placed in an Agilent Cary 3500 UV-vis spectrophotometer as fast as possible. Blank solutions in matched cuvettes were also prepared by adding 100 μL of MeOH to 1.9 mL of buffer. The solutions in all the cuvettes were stirred at 400 rpm ensure proper mixing. UV spectra were then recoded every 5 minutes for 18 hours with a spectral width of 200–1100 nm to monitor the stability of the test compounds.
# [7] = T. gondii ΔKu80:mNeon in HFFs, 4 days, highest concentration 100 μM, NA = not active at the maximum tested concentration, three biological replicates in triplicate
# [8] = T. gondii ΔKu80:mNeon in HFFs, 4 days, highest concentration 100 μM, NA = not active at the maximum tested concentration, three biological replicates in triplicate, read-out: EC50
compound,measurement,setting,value
"O=C(O)[c-]1cccc1.[Fe+2].c1cc[cH-]c1 [FcCOOH, ferrocene carboxylic acid, reference compound]",ROS formation in treated parasites (CellRox red fluorescence),[1],only showed slightly more ROS present than untreated parasites
same,E 1/2,"[2]; Run1, scan rate 25 mV s^−1",688 mV
same,ΔEp,"[2]; Run1, scan rate 25 mV s^−1",89 mV
same,E 1/2,"[2]; Run2, scan rate 90 mV s^−1",689 mV
same,ΔEp,"[2]; Run2, scan rate 90 mV s^−1",71 mV
same,EC50,[3]; [7],no activity
Nc1ccc(S(=O)(=O)Nc2ncccn2)cc1 [Sulfadiazine],EC50,"[3]; Toxoplasma gondii, 96 h",2.56 µM
O=C(NCCn1cnc2ccccc21)[c-]1cccc1.[Fe+2].c1cc[cH-]c1 [Compound 15],Cell survival / % cell viability,[4],50%
same,ROS formation in treated parasites (CellRox red fluorescence),[1],triggered the formation of ROS
same,Solubility range,"[5]; HEPES (pH 7.0), 25 °C",10-20 µM and 4-7 µg/mL
same,Solubility class,"[5]; HEPES (pH 7.0), 37 °C",moderate (a solubility of 10–60 μg mL^−1 is considered moderate)
same,Solubility range,"[5]; HEPES (pH 7.0), 37 °C",20-40 µM and 7–15 µg/mL
same,Solubility range,"[5]; PBS (pH7.4), 25 °C",10-20 µM and 4-7 µg/mL
same,Solubility range,"[5]; PBS (pH7.4), 37 °C",10-20 µM and 4-7 µg/mL
same,E 1/2,"[2]; Run1, scan rate 25 mV s^−1",653 mV
same,ΔEp,"[2]; Run1, scan rate 25 mV s^−1",105 mV
same,E 1/2,"[2]; Run2, scan rate 90 mV s^−1",643 mV
same,ΔEp,"[2]; Run2, scan rate 90 mV s^−1",78 mV
same,Change of UV-vis spectrum over time (aqueous stability),[6],remained unchanged
same,EC50,[3]; [8],17.9 µM
O=C(NCCn1c(-c2ccccc2)nc2ccccc21)[c-]1cccc1.[Fe+2].c1cc[cH-]c1 [Compound 14],Solubility range,"[5]; HEPES (pH 7.0), 25 °C",20-40 µM and 9-18 µg/mL
same,Solubility class,"[5]; HEPES (pH 7.0), 37 °C",poor (solubility <10 μg mL^−1 are considered to have poor solubility)
same,Solubility range,"[5]; HEPES (pH 7.0), 37 °C",5-10 µM and 2–4 µg/mL
same,Solubility range,"[5]; PBS (pH7.4), 25 °C",10-20 µM and 4-9 µg/mL
same,Solubility range,"[5]; PBS (pH7.4), 37 °C",10-20 µM and 4-9 µg/mL
same,E 1/2,"[2]; Run1, scan rate 25 mV s^−1",638 mV
same,ΔEp,"[2]; Run1, scan rate 25 mV s^−1",89 mV
same,E 1/2,"[2]; Run2, scan rate 90 mV s^−1",641 mV
same,ΔEp,"[2]; Run2, scan rate 90 mV s^−1",75 mV
same,Change of UV-vis spectrum over time (aqueous stability),[6],showed reduced intensity over time
same,Stability in buffer by ESI-MS of evaporated buffer solutions,"[6]; PBS, HEPES and acetate buffer, molecular ion peak present",remained intact and was stable
O=C(NCCn1cnc2ncccc21)[c-]1cccc1.[Fe+2].c1cc[cH-]c1 [Compound 16],ROS formation in treated parasites (CellRox red fluorescence),[1],not
same,Solubility range,"[5]; HEPES (pH 7.0), 25 °C",20-40 µM and 7-15 µg/mL
same,Solubility class,"[5]; HEPES (pH 7.0), 37 °C",poor (solubility <10 μg mL^−1 are considered to have poor solubility)
same,Solubility range,"[5]; HEPES (pH 7.0), 37 °C",10-20 µM and 4–7 µg/mL
same,Solubility range,"[5]; PBS (pH7.4), 25 °C",10-20 µM and 4-7 µg/mL
same,Solubility range,"[5]; PBS (pH7.4), 37 °C",10-20 µM and 4-7 µg/mL
same,E 1/2,"[2]; Run1, scan rate 25 mV s^−1",632 mV
same,ΔEp,"[2]; Run1, scan rate 25 mV s^−1",99 mV
same,E 1/2,"[2]; Run2, scan rate 90 mV s^−1",642 mV
same,ΔEp,"[2]; Run2, scan rate 90 mV s^−1",69 mV
same,Change of UV-vis spectrum over time (aqueous stability),[6],remained unchanged
CCc1nc(N)nc(N)c1-c1ccc(Cl)cc1 [Pyrimethamine],EC50,[3]; [8],13.8 µM
same,EC50,"[3]; Toxoplasma gondii, 96 h, T. gondii ΔKu80:mNeon in HFFs, 4 days, highest concentration 100 μM, NA = not active at the maximum tested concentration, three biological replicates in triplicate, read-out: EC50",13.8 µM
"[Fe+2].c1cc[cH-]c1.c1cc[cH-]c1 [Fc, ferrocene, reference compound]",E 1/2,"[2]; Run1, scan rate 25 mV s^−1",451 mV
same,ΔEp,"[2]; Run1, scan rate 25 mV s^−1",108 mV
same,E 1/2,"[2]; Run2, scan rate 90 mV s^−1",453 mV
same,ΔEp,"[2]; Run2, scan rate 90 mV s^−1",83 mV
"COC(=O)[C@H]1[C@H]2C[C@@H]3c4[nH]c5cc(OC)ccc5c4CCN3C[C@H]2C[C@@H](OC(=O)c2cc(OC)c(OC)c(OC)c2)[C@@H]1OC [Reserpine, reference compound]",solubility at 2 h,"[5]; HEPES buffer, 25 °C, pH 7, aqueous buffer",< 5 µM and < 3 µg/mL
same,solubility at 2 h,"[5]; HEPES buffer, 37 °C, pH 7, aqueous buffer",< 5 µM and < 3 µg/mL
same,solubility at 2 h,"[5]; PBS buffer, 25 °C, pH 7.4, aqueous buffer",< 5 µM and < 3 µg/mL
same,solubility at 2 h,"[5]; PBS buffer, 37 °C, pH 7.4, aqueous buffer",< 5 µM and < 3 µg/mL
O=C(Cl)[c-]1cccc1.[Fe+2].c1cc[cH-]c1 [FcCOCl],EC50,[3]; [7],no activity
